Reference: US4725683A, “Fluorophenoxyphenoxypropionates and derivatives thereof” (The Dow Chemical Company, priority 1985, dated 1988)

What was measured:
cotton = assay: Postemergent activity; type: in vivo; conditions: 125 ppm
Method: (§1) Representative compositions of the present invention were evaluated for the postemergence control of species of plants listed in Table A. In these evaluations, pots of the plant species listed in Table A, grown to a height of about 10 cms, were used. Aqueous spray compositions, containing various amounts of 2-[4-(2-fluoro-4-trifluoromethylphenoxy)-phenoxy]propionic acid methy ester, i.e., 125 ppm, 62.5 ppm, 31.25 ppm, 15.6 ppm, 7.8 ppm and 3.9 ppm, respectively, were applied to separate pots. The spray compositions were made by mixing the active ingredient in acetone to 1/2 the final volume, i.e., twice the final concentration. An equal amount of water was added to the active ingredient/acetone mixture wherein the water contained 0.1 percent by weight of TWEEN® 200 surfactant. The application to the plants was made to the point of run-off and was carried out with conventional spraying equipment. Other pots were sprayed with similar compositions containing no toxicant to serve as controls. Thereafter, the pots were maintained under conditions conducive for plant growth. Two weeks after treatment, the pots were examined for plant growth and evaluated on a scale of 0 to 100 where 0 represents no effect and 100 represents complete kill. The results of the examination of the treated pots are set forth below in Table A.

jimson weed = assay: Postemergent activity; type: in vivo; conditions: 125 ppm
Method: as §1

COC(=O)C(C)Oc1ccc(Oc2ccc(C(F)(F)F)cc2F)cc1 (centres unmarked) [2-[4-(2-fluoro-4-trifluoromethylphenoxy)phenoxy]propionic acid methyl ester]
phytotoxic effect (cotton): inactive
phytotoxic effect (jimson weed): inactive
